# In patent US20070049538A1, “METHODS FOR USING CUCURBITACIN COMPOUNDS” (SOUTH DAKOTA STATE UNIVERSITY, priority 2005, published 2007):
# Where two headings read alike, the source gives them in different places.
# Tests used:
# [1] = Chromatographic hydrophobicity index (CHI) by RP-HPLC in buffered methanol; assay type: physicochemical; settings: for CHIMeOH: buffered methanol pH 7.0, Econosil C18 150 mm, Eq. (4)
# Procedure: (§1) We used Dynamax liquid chromatograph (Varian Chromatography Systems) with PDA-2 photodiode array UV detector, controlled by the Dynamax PC Chromatography Data System (v. 1.9) software and Dynamax dual pump solvent delivery system, model SD-200. […] Cucurbitacins analytical separation was optimized on Alltima C18 (Alltech; 250 mm×4.6 mm, 5 μm) HPLC column, at gradient elution in acetonitrile (ACN, 30-70% ACN in 57 min), and in MeOH (60-75% MeOH in 50 min). Cucurbitacins stock concentration of 10^−2M in DMSO:ethanol (1:1) was standardized against pure cucurbitacin I (Indofine Chemical Company, Hillsborough, N.J.) by analytical HPLC means. Compounds CHI was measured in both ACN, by using Alltima C18 column, and in MeOH, by using Econosil C18 column (Alltech; 150 mm×4.6 mm, 5 μm). Analytical separations were conducted at a flow rate of 1 ml/min. The aqueous phase was buffered for the CHI measurement. For this purpose, solid ammonium acetate (Fisher Sci. Co., Fair Lawn, N.J.) was dissolved in deionized distilled water at 50 mM final concentration and its pH adjusted to 7.0.
# A standard mixture of 10 compounds including 19-21, 23-27, aniline (compound 28) and bromobenzene (compound 29), dissolved in MeOH, was injected at five isochratic elution, at 40, 45, 50, 55, and 60% MeOH. Then the mixture was injected at fast gradient elution to establish the correlation from Eq. (1). The fast linear gradient elution was optimized for 30-100% MeOH in aqueous buffer with 10 min runtime.
# (§2) Cucurbitacins lipophilicity was measured by RP-HPLC. […] Due to its high viscosity, aqueous MeOH required a shorter column than the one applied for ACN. First, the C18 columns were calibrated against a standard mixture, and the relationships established between the fast gradient tR and φ0 or published CHI (see Eqs. (2)-(4) from Table 2). Second, cucurbitacins were injected at fast gradient elution under similar conditions, and their CHI calculated (Table 4) from Eqs. (2)-(4). Eqs.
# HepG2 cells [2] = assay type: cell-based, human
# Procedure: The activity of two toxins was studied first on HepG2 cells—bromobenzene (BB) and CCl4. Cells were challenged with the toxins at different concentration levels. Precipitate formation was observed when BB was diluted with media prior to addition to the cells; therefore, both the precipitate and the supernatant were added separately over cells to study their toxic effect.
# HepG2 cells [3] = assay: Cucurbitacins cytotoxicity on HepG2 cells (MTT viability assay); assay type: cell-based, human
# Procedure: HepG2 (human hepatocellular carcinoma, ATCC) cells were grown in EMEM (Gibco, Grand Island, N.Y.) supplemented with 10% fetal bovine serum (FBS), and 1% penicillin/fungizone mixture (Gibco). Thabrew's optimized procedure (Thabrew et al., J. Pharm. Pharmcol. 49 (1994) 1442, the entire disclosure of which is herein incorporated by reference) was followed. Cells were batch cultured for 10 days, then seeded at concentration of 30,000 cells/well in fresh media in 96-well microtiter plastic plates at 37° C. for a day. Then cells were exposed to different concentrations of cucurbitacins at final volume of 100 μl/well. Five-fold serial dilution of compounds was carried out in the plate for five consecutive wells. After 24 h of incubation with chemicals, live cells were visualized using the MTT viability assay (Promega, Madison, Wis.). The absorbance was measured at 570 nm. Negative (without cells) and positive (without test chemicals) controls were also incubated with each plate. […] At least three reproducible experiments were performed per compound with three replicate wells per concentration.
# Cells were challenged with cu-curbitacins at various concentrations for a day and then live cells quantified with MTT dye. This period of time measures exclusively compounds cytotoxicity, while longer incubation time may lead to interference from metabolites.
# [4] = Chromatographic hydrophobicity index (CHI) by RP-HPLC in buffered acetonitrile; assay type: physicochemical; design: key: CHI = φ0 (isocratic hydrophobicity index), = A·tR + B; ACN % scale; settings: for CHIACN1: buffered acetonitrile pH 7.0, Alltima C18 250 mm, Eq. (2) from isocratic φ0; for CHIACN2: buffered acetonitrile pH 7.0, Eq. (3) calibrated against published CHI
# Procedure: as §1
# All standard compounds were purchased from Acros (Acros Organics, NJ). The chromatographic lipophilicity or hydrophobicity was determined applying Valkó's technique (Valkó et al., Anal. Chem. 69 (1997) 2022, the entire disclosure of which is herein incorporated by reference). A standard mixture of seven compounds was prepared in solution: theophylline (compound 19), benzimidazole (compound 20), acetophenone (compound 21), indole (compound 22), propiophenone (compound 23), butyrophenone (compound 24), and valerophenone (compound 25). […] The retention factor, log k=log((tR-t0)/t0), was calculated for each analyte from five good injections of […] sample. The dead time (t0) was measured by injecting NaNO3 together with the sample. Then, the log k values were plotted against isocratic ACN concentrations to establish the linear regression equations for each analyte. From each straight line the isocratic hydrophobicity index was computed, φ0=(intercept/slope). Further, the calibration mixture was injected at fast gradient elution, 0-22 min 0-100% ACN, and three additional minutes at 100% ACN. The φ0 values for the test compounds were plotted against gradient retention time and the linear equation determined from the following equation: φ0=CHI=AtR+B (1)
# The gradient elution conditions were similar to the one from the first approach.
# as §2
# HepG2 cells [5] = assay: cells; settings: read-out: EC50 cytoprotection; Table 7; HepG2 against CCl4 toxicity; estimated
# Source text: Experimental conditions were standardized on silybin. […]
# The ratio of IC50-to-EC50 (hereafter T/A) is also indicated in this table, which gives the margin between toxic and cytoprotective concentrations.
# HSC-T6 cells [6] = assay: Serum-driven HSC-T6 proliferation, experiment 1 (4 h challenge, two days drug-free growth); assay type: cell-based, rat; settings: HSC-T6, 4 h challenge, then two days drug-free media
# Procedure: The proliferation effect of serum on HSC-T6 cells was optimized and cucurbitacin antiproliferative activity was measured. Serum contains a large number of growth factors, hormones and other nutrients, which help cells to grow and multiply. Several trials were conducted. In experiment 1, cells were challenged with cucurbitacin analogs for 4 h and then cells were grown in drug-free media for two additional days.
# HSC-T6 cells were photographed under phase-contrast microscope to record possible changes in cell morphology during experiment 1. […] We are monitoring specifically the effect of compound on the cells, cell recovery after 4 h challenge, and relative cell proliferation. […] Live cells are quantified at the end of the assay (row 4) with MTT dye.
# (§3) We established several experimental conditions such as 4 hours of incubation time with cucurbitacin, and 2 day cell incubation with fresh media after challenging with cucurbitacin (Exp. 1). Other experiments involved addition of cucurbitacin for 24 hours over starved cells (Exp. 2) vs. proliferating cells (Exp. 3), and one day incubation of cells with fresh media after challenge. […] Because of that, the challenge time was increased to 24 hours (Exp. 2 and 3).
# We modified this approach. Our assay included a second control (ZC) supplemented with no serum intended to measure cucurbitacin anti-proliferation effect relative to the number of cells generated during challenge instead of the total number of cells present in each well.
# HSC-T6 cells [7] = assay: Serum-driven HSC-T6 proliferation, experiment 3 (24 h, proliferating cells); assay type: cell-based, rat; settings: HSC-T6, 24 h, proliferating cells; read-out: Experiment 3 EC50 (A)
# Procedure: To overcome this problem, the amount of incubation time was increased to 24 h, and cucurbitacin activity measured on starved (Exp. 2) or proliferative (Exp. 3) cells (Table 8). Cells turned quiescent when serum was not supplemented for one day (Exp. 2). Activity of a few compounds was monitored on quiescent cells, and their activity compared to the ones measured on proliferating cells (Exp. 3).
# as §3, with “challenge. The 4 hour incubation period with cucurbitacin triggered anti-proliferation effect. This effect, however, was hindered by a second cycle of cell proliferation during the two-day cell growth period (see silybin, E and I glucosides, and for I-nPr).” for “challenge.”
# In experiment 3, only 40% of the cells divided. The ratio of EC50 values for exp. 2 and exp. 3 varied between 3.6 and 12.7. This may indicate differential cytotoxicity of silybin and cucurbitacin analogs over quiescent and active stellate cells. In other words, compounds show higher anti-proliferative activity on active cells than on quiescent cells.
# HSC-T6 cells [8] = assay: Cytotoxicity on HSC-T6 cells (experiment 3); assay type: cell-based, rat; settings: read-out: Experiment 3 IC50 (T)
# Source text: Cytotoxicity of all cucurbitacin analogs was additionally measured in experiment 3 (Table 8).
# [9] = mouse, in vivo; cited from earlier work
# [10] = in vivo; cited from earlier work
# [11] = ABTS*+ Radical Cation Decolorization Assay; settings: read-out: concentration of 50% inhibition
# Procedure: Cucurbitacin B activity was monitored at 50 μM, 100 μM, and 1.8 mM. The time interval was expanded up to 2 hours in case cucurbitacin B was reacting slowly.
structure (smiles),measurement,setting,value
"Brc1ccccc1 [Bromobenzene (29), bromobenzene, reference compound]",CHIMeOH (b),"[1]; standard compounds, isochratic and gradient elution of standard mixture",69.43 + 0.07
same,cell viability,"HepG2 cells [2]; HepG2, toxin at 20 nM",no viability
ClC(Cl)(Cl)Cl [CCl4],cell viability,"HepG2 cells [2]; HepG2, toxin at 4.5×10^−3 M",~50%
"CC(C)(O)/C=C/C(=O)[C@](C)(O)[C@H]1[C@H](O)C[C@@]2(C)[C@@H]3CC=C4[C@@H](C[C@H](O)C(=O)C4(C)C)[C@]3(C)C(=O)C[C@]12C [D, cucurbitacin D]",IC50,"HepG2 cells [3]; Table 4, 24 h incubation, MTT",77.3 µM
same,IC50,HepG2 cells [3]; Table 5,77.3 ± 8.7 µM
same,IC50,HepG2 cells [3]; Table 7,77.3 µM
same,CHIACN1,[4],58.31
same,CHIACN2,[4],55.83
same,CHIMeOH,[1],60.40
same,EC50,HepG2 cells [5],9 µM
same,EC50,HSC-T6 cells [6],3.8 µM
same,EC50,HSC-T6 cells [7],0.07 µM
same,IC50,HSC-T6 cells [8],26 µM
same,capillary permeability,[9],enhanced capillary permeability
"CC(=O)OC(C)(C)/C=C/C(=O)[C@@](C)(O)[C@H]1[C@H](O)C[C@@]2(C)[C@@H]3CC=C4[C@@H](CC(=O)[C@@H](O)C4(C)C)[C@]3(C)C(=O)C[C@]12C [iso-B, iso-cucurbitacin B]",CHIACN1,[4],72.86
same,CHIACN2,[4],78.38
same,CHIMeOH,[1],68.50
same,protective and preventive activity,[10],"significantly reducing serum enzymes level, steatosis, inflammation, and experimental cholestasis"
"Cc1c(C)c2c(c(C)c1O)CCC(C)(C(=O)O)O2 (stereo not shown) [trolox, reference compound]",IC50,[11],580 µM
